Data taken from paper PMC7738869, “A novel STAT3 inhibitor W2014-S regresses human non-small cell lung cancer xenografts and sensitizes EGFR-TKI acquired resistance” (Theranostics, 2021).

Legend:
PC-9 cells = test: Cell viability assay (CCK-8), PC-9; type: cell-based; settings: Homo sapiens, PC-9, 72 h, read-out: IC50 cell proliferation
Protocol: Cell proliferation was measured using the Cell Counting Kit-8 (CCK-8, B34304, Bimake, USA). A549 (2 × 10^3/100 μL/well), PC-9 (3 × 10^3/100 μL/well) or PC-9/GR cells (3 × 10^3/100 μL/well) were plated into each well of 96-well plates (Costar, USA). […] Then, 10 μL of CCK-8 was added to each well, and cells were incubated for 1-4 h until the color of untreated controls turned to orange. The absorbance (A) was measured by a microplate reader (FLUOstar Omega-ACU, USA) at test and reference wavelengths of 450 nm. The percentage of growth was calculated as Cell viability (%) = [A (Compound +) - A (Blank) ] / [A (Compound -) - A (Blank) ] × 100%. Cell viability meant proliferation of cells. Each experiment was done at least in triplicate, and thrice independently.

Acute toxicity study = type: in vivo; settings: KM mice, 100, 300 and 500 mg/kg i.p., observed 14 days
Protocol: KM mice (4-5 weeks of age, weighing 18-22g, both male and female) for acute toxicity experiment were provided from the Experimental Animal Center of Sun Yat-sen University (Guangdong, China) and were housed in a specific pathogen-free facility. To test the acute toxicity, 40 mice were randomly distributed into 4 groups, and treated with W2014-S at 100 mg/kg, 300 mg/kg, and 500 mg/kg by intraperitoneal injection. Each group have 10 mice (half male and half female). […] All animal experiments were approved by the Research Ethics Committee of Sun Yat-sen University (SYSU-IACUC-2020-000312).

A549 cells = test: Colony formation assay, A549; type: cell-based, human; settings: A549, as low as 0.3 μM
pY705-STAT3 [1] = test: Western blot of pY705-STAT3 in A549 cells; type: cell-based, human
Protocol: (§1) Cells or tumor tissue were lysed with RIPA buffer (Beyotime, Shanghai, China) supplemented with protease inhibitors (Beyotime, Shanghai, China) and phosphatase inhibitors (Bimake, USA). Lysates were denatured by heating for 5 min at 99 °C and loaded on 4-10% SDS-polyacrylamide gel electrophoresis. Then the proteins were transferred to polyvinylidene fluoride (PVDF) membranes (Millipore, USA). The membranes were blocked and probed with primary antibodies and secondary HPR-conjugated antibodies. At last the membranes were detected by chemiluminescence (Tanon, Shanghai, China). For co-immunoprecipitation experiments, 293T cells were plated and grew to about 80% confluency, then co-transfected with plasmids of HA-STAT3 and Flag-STAT3 using Lipofectamine 2000. After 24 h, cells were treated with different concentrations of W2014-S for following 24 h, and stimulated with IL-6 (100 ng/mL) for 1 h. Cells were lysed with IP RIPA buffer (Beyotime, Shanghai, China) supplemented with protease inhibitors (Beyotime, Shanghai, China) and phosphatase inhibitors (Bimake, America), and lysates were cultured with Anti-flag Affinity Gel (B23102, Bimake, USA) overnight at 4 ℃. The gel was washed by PBST for three times and added 1×loading buffer and denatured by heating for 5 min at 99 ℃. Then the proteins were resolved on SDS-PAGE, transferred to PVDF membranes and analysed with immunoblotting.

[2] = tested on: pY705-STAT3 and pY1068-EGFR; test: Western blot of pY705-STAT3 and pY1068-EGFR in PC-9/GR cells; type: cell-based, human; settings: W2014-S 1 μM and/or gefitinib 2 μM, 24 h
Protocol: Cells or tumor tissue were lysed with RIPA buffer (Beyotime, Shanghai, China) supplemented with protease inhibitors (Beyotime, Shanghai, China) and phosphatase inhibitors (Bimake, USA). Lysates were denatured by heating for 5 min at 99 °C and loaded on 4-10% SDS-polyacrylamide gel electrophoresis. Then the proteins were transferred to polyvinylidene fluoride (PVDF) membranes (Millipore, USA). The membranes were blocked and probed with primary antibodies and secondary HPR-conjugated antibodies. At last the membranes were detected by chemiluminescence (Tanon, Shanghai, China). […] Cells were lysed with IP RIPA buffer (Beyotime, Shanghai, China) supplemented with protease inhibitors (Beyotime, Shanghai, China) and phosphatase inhibitors (Bimake, America), and lysates were cultured with Anti-flag Affinity Gel (B23102, Bimake, USA) overnight at 4 ℃. The gel was washed by PBST for three times and added 1×loading buffer and denatured by heating for 5 min at 99 ℃. Then the proteins were resolved on SDS-PAGE, transferred to PVDF membranes and analysed with immunoblotting.

[3] = tested on: A549 cells with STAT3 knock down / knock out; test: Cell proliferation assay in A549 cells with STAT3 knocked down (siRNA) or knocked out (CRISPR/Cas9); type: cell-based, human
Excerpt: To knockout the STAT3 gene in A549 cells using CRISPR/Cas9 system, the lentiCRISPRv2 vector (gift from Professor Junjian Wang, Sun Yat-Sen University, China) was used. An optimized guide RNA (gRNA) targeting the exon2 of STAT3 was designed in an online CRISPR design tool (http://crispor.tefor.net/). Then the guide RNA (synthesized by Sangon Biotech) inserted into lentiCRISPRv2 vector and the recombinant plasmid (sgSTAT3) was transfected and amplified in E.coli JM109. The confirmed and purified sgSTAT3 plasmid was transfected into A549 cells using lentivirus, after 48h post-transfection, cells were selected by introducing into 3 μg/mL puromycin for 2 weeks. Then the puromycin-resistant cells were planted into 96-wells plate with a density of one single cell per well and expanse to select the STAT3-konckout cells. The STAT3-konckout cells isolated from the single-colony were verified by western blotting analysis. The gRNA used to knockout STAT3 as follows,
Cell proliferation was measured using the Cell Counting Kit-8 (CCK-8, B34304, Bimake, USA). […] The absorbance (A) was measured by a microplate reader (FLUOstar Omega-ACU, USA) at test and reference wavelengths of 450 nm. The percentage of growth was calculated as Cell viability (%) = [A (Compound +) - A (Blank) ] / [A (Compound -) - A (Blank) ] × 100%. […]

JAK2 = test: Western blot of phosphorylated and total JAK2 in A549 and PC-9 cells; type: cell-based, human; settings: A549 and PC-9, 0-3 μM, 24 h
Protocol: as §1

pY705-STAT3 [4] = test: Immunofluorescence of nuclear pY705-STAT3 in A549 cells; type: cell-based, human; settings: A549, 3 h treatment
Protocol: A549 cells were cultured into confocal dishes (Costar, USA). After 24 h, W2014-S was added into dishes. After another 3 h, cells were fixed with 4% paraformaldehyde in PBS for 10 min at room temperature. Then cells were permeabilized with 0.3% Trition X-100 for 5 min at room temperature, following by incubating with primary antibody overnight at 4 ℃. Next, cells were incubated with Alexa-Fluor-conjugated secondary antibodies for 1 h in the dark. The cells were subsequently stained with DAPI (40728ES50, Yeasen, Shanghai, China). Images were captured by Laser Scanning Confocal Microscope FV3000 (Olympus, Japan). Z-stacks were collected with a spacing of 1 μm. Antibody and dilutions used in the studies were: pY705-STAT3 (9145S, Cell Signaling Technology, 1:100), Alexa Fluor 488 Conjugate (1:5000, #4412, Cell signaling Technology, USA). The fluorescence intensity profile along the Z-axis from confocal Z-stacks was shown. The fluorescence intensity of nuclear-localized p-STAT3 was quantified using the confocal software to define the area of the selected region of interest based on the nuclear DAPI signal. Each experiment was done in at least 3 independent experiments.

[5] = biological target: full-length wild-type STAT3 (Homo sapiens, UniProt P40763); test: Surface plasmon resonance analysis of binding to STAT3; settings: SPR
Protocol: Biacore 8K and Biacore Insight Evaluation software were used to analyze the interaction between the agents and the protein full-length wild-type STAT3 to detect the binding affinity. Purified STAT3 (100 μg/mL) without Tris and glycerin was injected onto the CM5 Chip (GE, USA) for immobilization. Several concentrations of W2014-S or W2014-R dissolved in running buffer (1×PBS with filtration, 0.01% DMSO) were flown over the chip to produce response signals. The kinetics and affinities were calculated by the Biacore Insight Evolution software, and the results were determined as the binding affinity (KD).

c-Caspase-7 = test: Western blot of c-Caspase-7 in A549 and PC-9 cells; type: cell-based, human
Protocol: as §1

Sequence of full-length wild-type STAT3 (P40763 whole entry): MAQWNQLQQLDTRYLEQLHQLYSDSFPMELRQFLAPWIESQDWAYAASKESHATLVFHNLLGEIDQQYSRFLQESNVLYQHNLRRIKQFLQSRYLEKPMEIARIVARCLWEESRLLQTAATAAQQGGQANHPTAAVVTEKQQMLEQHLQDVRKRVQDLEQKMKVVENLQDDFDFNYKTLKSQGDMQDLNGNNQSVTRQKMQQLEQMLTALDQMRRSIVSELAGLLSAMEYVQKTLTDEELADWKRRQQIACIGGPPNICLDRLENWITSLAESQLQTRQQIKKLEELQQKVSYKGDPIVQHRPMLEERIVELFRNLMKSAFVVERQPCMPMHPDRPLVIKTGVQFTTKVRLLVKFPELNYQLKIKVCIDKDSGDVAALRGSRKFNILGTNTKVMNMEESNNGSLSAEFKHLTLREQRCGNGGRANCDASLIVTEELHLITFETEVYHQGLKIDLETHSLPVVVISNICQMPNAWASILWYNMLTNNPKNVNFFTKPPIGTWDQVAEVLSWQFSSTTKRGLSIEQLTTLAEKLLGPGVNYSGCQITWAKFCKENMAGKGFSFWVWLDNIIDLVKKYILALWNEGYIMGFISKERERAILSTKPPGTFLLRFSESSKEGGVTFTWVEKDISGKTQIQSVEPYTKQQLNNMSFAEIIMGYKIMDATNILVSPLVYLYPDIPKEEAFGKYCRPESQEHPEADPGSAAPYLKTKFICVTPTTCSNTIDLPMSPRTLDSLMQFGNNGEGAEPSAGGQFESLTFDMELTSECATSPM

SMILES: C[C@H](Oc1ccc(-c2nc3nc(C4=CCN(C(=O)OC(C)(C)C)CC4)ccc3[nH]2)cc1)c1ccccc1 [W2014-S]
- IC50 (PC-9 cells): 2360 nM
- acute toxicity: body weights and signs of toxicity (Acute toxicity study): no significant changes in body weights, or obvious signs of toxicity
- colony formation (A549 cells): significantly suppressed the colony formation
- phosphorylation level of STAT3 (pY705-STAT3 [1]; A549, 0, 1, 3 and 5 μM, 24 h): inhibit the phosphorylation level of STAT3 in a dose dependent manner, and more potent than W2014-R
- phosphorylation of STAT3 at Y705, time course (pY705-STAT3 [1]; A549, 1 μM, 0-24 h): inhibited after 1 h treatment
- level of pY705-STAT3 and pY1068-EGFR [2]: reduced the phosphorylation of STAT3
- anti-cancer activities in STAT3 knocked out cells ([3]; A549, Crispr/cas9): significantly attenuated
- anti-cancer activities in STAT3 knocked down cells ([3]; A549, siRNA interference): significantly attenuated
- protein level of phosphorylated JAK2 and total JAK2 (JAK2): little or no effect
- accumulation of pY705-STAT3 in the nucleus (pY705-STAT3 [4]): decreased
- Kd [5]: 3640 nM
- cleavage of caspase-7 (c-Caspase-7): induced
